Results taken from patent US20100267561A1, “HERBICIDAL PYRIDAZINONE DERIVATIVES” (priority 2007, published 2010).

Key:
Test in all cases: Test F mixtures with safener cloquintocet-mexyl, pre-/postemergence plant response
Format in all cases: in vivo
Details in all cases: applied alone
[1] = tested on: winter barley (HORVX, Hordeum vulgare)
[2] = tested on: winter wheat (TRZAW, Triticum aestivum)
[3] = tested on: wild oat (AVEFA, Avena fatua)

CCc1cc(-c2ccc(C(F)(F)F)cc2)nn1-c1c(OC(=O)OC(C)C)cnn(C)c1=O [Compound 12]
HORVX Obsd. (observed effect) plant response rating, scale 0 to 100 ([1]; postemergence, 4 g a.i./ha): 0
HORVX Obsd. (observed effect) plant response rating, scale 0 to 100 ([1]; postemergence, 8 g a.i./ha): 32
HORVX Obsd. (observed effect) plant response rating, scale 0 to 100 ([1]; postemergence, 16 g a.i./ha): 65
HORVX Obsd. (observed effect) plant response rating, scale 0 to 100 ([1]; preemergence, 4 g a.i./ha): 10
HORVX Obsd. (observed effect) plant response rating, scale 0 to 100 ([1]; preemergence, 8 g a.i./ha): 73
HORVX Obsd. (observed effect) plant response rating, scale 0 to 100 ([1]; preemergence, 16 g a.i./ha): 80
TRZAW Obsd. (observed effect) plant response rating, scale 0 to 100 ([2]; postemergence, 4 g a.i./ha): 0
TRZAW Obsd. (observed effect) plant response rating, scale 0 to 100 ([2]; postemergence, 8 g a.i./ha): 18
TRZAW Obsd. (observed effect) plant response rating, scale 0 to 100 ([2]; postemergence, 16 g a.i./ha): 77
TRZAW Obsd. (observed effect) plant response rating, scale 0 to 100 ([2]; preemergence, 4 g a.i./ha): 0
TRZAW Obsd. (observed effect) plant response rating, scale 0 to 100 ([2]; preemergence, 8 g a.i./ha): 75
TRZAW Obsd. (observed effect) plant response rating, scale 0 to 100 ([2]; preemergence, 16 g a.i./ha): 97
AVEFA Obsd. (observed effect) plant response rating, scale 0 to 100 ([3]; postemergence, 4 g a.i./ha): 13
AVEFA Obsd. (observed effect) plant response rating, scale 0 to 100 ([3]; postemergence, 8 g a.i./ha): 98
AVEFA Obsd. (observed effect) plant response rating, scale 0 to 100 ([3]; postemergence, 16 g a.i./ha): 100
AVEFA Obsd. (observed effect) plant response rating, scale 0 to 100 ([3]; preemergence, 4 g a.i./ha): 7
AVEFA Obsd. (observed effect) plant response rating, scale 0 to 100 ([3]; preemergence, 8 g a.i./ha): 92
AVEFA Obsd. (observed effect) plant response rating, scale 0 to 100 ([3]; preemergence, 16 g a.i./ha): 96
